Test results taken from ChEMBL document CHEMBL5674860, “Optimized Dual-Glo Assay to identify co-culture-induced drug vulnerabilities in 3D CRC models” (2024).
Square brackets hold non-standard residues; d marks the D form. Peptide text beside a SMILES is read from it. Arg(Me) = CNC(=N)NCCC[C@H](N)C(=O)O; d4Pal = N[C@H](Cc1ccncc1)C(=O)O; azaGly = NNC(=O)O

How the values were obtained:
Type in all cases: functional, Homo sapiens
Parameters in all cases: dose or concentration left out as unconfirmed
Colon cancer organoid [1] = assay: Optimized Dual-Glo assay to identify co-culture induced drug vulnerabilities using donated chemical probes and chemogenomics kinase set in O20 CRC organoid and F20 CAF mono and co-culture. […] Cell viability is reported both mono and co-culture models.
Colon cancer organoid [2] = assay: Optimized Dual-Glo assay to identify co-culture induced drug vulnerabilities using donated chemical probes and chemogenomics kinase set in O14 CRC organoid and F14 CAF mono and co-culture. […] Cell viability is reported both mono and co-culture models.
Colon cancer organoid [3] = assay: Optimized Dual-Glo assay to identify co-culture induced drug vulnerabilities using donated chemical probes and chemogenomics kinase set in O06 CRC organoid and F06 CAF mono and co-culture. […] Cell viability is reported both mono and co-culture models.
[4] = Culture type Co-Culture, Transduced with Lucferase2-P2A-EGFP lentivirus
[5] = Culture type Co-Culture, Transduced with Renilla-dsRed lentivirus
[6] = Culture type Mono-Culture, Transduced with Lucferase2-P2A-EGFP lentivirus
[7] = Culture type Mono-Culture, Transduced with Renilla-dsRed lentivirus

| SMILES | Cell Viability (Colon cancer organoid [1]; [4]) [%] | Cell Viability (Colon cancer organoid [1]; [5]) [%] | Cell Viability (Colon cancer organoid [1]; [6]) [%] | Cell Viability (Colon cancer organoid [1]; [7]) [%] | Cell Viability (Colon cancer organoid [2]; [4]) [%] | Cell Viability (Colon cancer organoid [2]; [5]) [%] | Cell Viability (Colon cancer organoid [2]; [6]) [%] | Cell Viability (Colon cancer organoid [2]; [7]) [%] | Cell Viability (Colon cancer organoid [3]; [4]) [%] | Cell Viability (Colon cancer organoid [3]; [5]) [%] | Cell Viability (Colon cancer organoid [3]; [6]) [%] | Cell Viability (Colon cancer organoid [3]; [7]) [%] |
| --- | --- | --- | --- | --- | --- | --- | --- | --- | --- | --- | --- | --- |
| CNC(=N)NCCC[C@H](NC(=O)[C@H](CC(C)C)NC(=O)NNC(=O)[C@H](Cc1ccccc1)NC(=O)[C@H](CO)NC(=O)[C@H](CC(N)=O)NC(=O)[C@@H](Cc1ccncc1)NC(=O)[C@H](N)Cc1ccc(O)cc1)C(=O)N[C@@H](Cc1ccccc1)C(N)=O [KISS1-305] (H-[dY][d4Pal]NSF[azaGly]L[Arg(Me)]F-NH2) | 118.72 | 125.679 | 103.004 | 99.3377 | 143.349 | 104.877 | 85.2761 | 111.321 | 104.031 | 118.904 | 114.891 | 119.718 |
| Cn1cc(-c2ccc3occ(-c4cccc(-c5ccncc5)c4)c3n2)cn1 | 65.7439 | 132.411 | 69.6903 | 72.543 | 113.323 | 67.5057 | 72.9931 | 81.4959 | 91.2802 | 94.5664 | 138.621 | 110.377 |
| CO[C@H]1CC[C@H](CNc2ccc(S(=O)(=O)NC(=O)c3ccc(N4CCN(CC5=C(c6ccc(Cl)cc6)CC(C)(C)CC5)CC4)cc3Oc3cnc4[nH]ccc4c3)cc2[N+](=O)[O-])CC1 [A-1211212] | 16.3832 | 159.244 | 32.5112 | 71.0169 | 35.4826 | 44.6988 | 55.1244 | 87.836 | 8.693 | 108.861 | 18.6642 | 86.311 |
| CNCCN1CCC(c2cc(CN(C)C(=O)c3cccc(Oc4ccccc4)c3)ccn2)CC1 | 67.0647 | 133.473 | 86.7663 | 93.4663 | 99.3221 | 120.381 | 93.8948 | 118.528 | 83.6812 | 129.007 | 98.3617 | 135.689 |
| CC(=O)c1c(NS(C)(=O)=O)c2cc(-c3ccc(Cl)cc3)c(-c3ccc(Cl)cc3Cl)nc2n(C)c1=O [MRL-CB1-NC] | 159.821 | 122.581 | 102.28 | 97.0964 | 103.447 | 111.697 | 108.811 | 108.592 | 125.408 | 125.307 | 109.863 | 112.651 |
| NS(=O)(=O)c1cc(NC(=O)Cc2ccccc2)ccc1Oc1cccc(Cl)c1 [BAY-1797] | 89.0927 | 86.996 | 102.238 | 103.793 | 108.747 | 112.127 | 131.361 | 106.475 | 120.23 | 167.635 | 96.4062 | 112.706 |
| C[C@H](c1ccc(F)cc1)N(Cc1ccc(Cl)c(C(=O)O)c1)C(=O)c1cnc2ccccc2c1 [PF-05257137] | 147.232 | 103.742 | 109.057 | 106.822 | 77.6621 | 111.229 | 120.37 | 101.269 | 116.801 | 128.047 | 124.519 | 88.8687 |
| CN1CCN(Cc2cc(NC(=O)c3ccc4c(c3)CN(c3ccccc3)CC4)cc(C(F)(F)F)c2)CC1 | 90.0307 | 84.0381 | 92.4079 | 96.3902 | 99.7753 | 107.038 | 129.235 | 97.9505 | 103.855 | 89.7391 | 108.49 | 105.467 |
| Cc1ccccc1Oc1cc(-n2c(=O)cc(C(F)(F)F)[nH]c2=O)c2ccccc2c1Cl [BAY-069] | 83.88 | 119.466 | 87.9837 | 109.318 | 114.551 | 130.948 | 135.188 | 102.99 | 128.819 | 153.89 | 114.766 | 111.149 |
| CCC(=O)N[C@@H]1CC[C@H](C(=O)N(C)c2ccc(-c3nc4ccccc4o3)cc2)C1 [BI 99990] | 115.817 | 121.154 | 99.9084 | 146.017 | 87.159 | 112.98 | 99.3505 | 100.76 | 135.832 | 173.184 | 107.841 | 87.7071 |
| Cc1cnc(-c2cc(Cl)ccc2F)cc1-n1c(=O)n(CC(N)=O)c2cnccc21 [TP-008] | 64.1613 | 114.054 | 79.9392 | 106.384 | 97.8203 | 116.603 | 124.72 | 98.4627 | 13.7504 | 213.932 | 47.0575 | 82.299 |
| CNCCN1CCC(OCc2ccccc2)CC1 | 15.2188 | 211.667 | 16.3767 | 101.684 | 36.6993 | 161.59 | 58.8026 | 109.763 | 118.085 | 144.179 | 105.555 | 98.6528 |
| Cn1cc(-c2[nH]c3cc(NC(=O)[C@H](N)C4CCCCC4)cc4c3c2C=NNC4=O)cn1 | 23.152 | 172.741 | 12.2596 | 94.31 | 1.93 | 159.115 | 4.927 | 82.9355 | 9.334 | 180.436 | 3.761 | 107.077 |
| CC1=C(C)C(=O)C(C(C)(C)CC(=O)N(CCCCSC[C@H]2O[C@@H](n3cnc4c(N)ncnc43)[C@@H]3OC(C)(C)O[C@@H]32)Cc2cccc(-c3ccc(Cl)cc3)c2)=C(C)C1=O | 97.2624 | 117.278 | 134.873 | 88.9157 | 111.496 | 127.734 | 88.6013 | 108.216 | 82.0361 | 129.013 | 89.6281 | 110.922 |
| CC[C@H](CO)Nc1nc(NCc2ccccc2)c2ncn(C(C)C)c2n1 [SELICICLIB] | 126.322 | 75.3934 | 94.0529 | 97.9285 | 135.109 | 107.454 | 106.101 | 84.912 | 93.234 | 112.199 | 108.084 | 105.93 |
| C[C@]1(O)C[C@@H](c2nc(-c3ccc4ccc(-c5ccccc5)nc4c3)c3c(N)nccn32)C1 [LINSITINIB] | 60.4709 | 65.9185 | 18.406 | 73.2347 | 41.9562 | 109.271 | 38.702 | 83.4141 | 53.0716 | 100.619 | 21.1574 | 74.7669 |
| O=C(O)[C@@H]1[C@@H](Cn2nnc3ccccc3c2=O)CC[C@H]1C(=O)c1ccc(OCCC2CCOCC2)cc1 [BAY-694] | 92.0939 | 91.7477 | 167.035 | 108.76 | 106.85 | 112.908 | 118.458 | 100.512 | 117.739 | 144.793 | 97.4704 | 83.1858 |
